Like-named read-outs stand apart in the source and are kept apart here.
Experiments:
GAK = target: T1, GAK (Homo sapiens, UniProt O14976); experiment: TR-FRET binding displacement assay
T1 sequence (O14976 12-347 limits assumed): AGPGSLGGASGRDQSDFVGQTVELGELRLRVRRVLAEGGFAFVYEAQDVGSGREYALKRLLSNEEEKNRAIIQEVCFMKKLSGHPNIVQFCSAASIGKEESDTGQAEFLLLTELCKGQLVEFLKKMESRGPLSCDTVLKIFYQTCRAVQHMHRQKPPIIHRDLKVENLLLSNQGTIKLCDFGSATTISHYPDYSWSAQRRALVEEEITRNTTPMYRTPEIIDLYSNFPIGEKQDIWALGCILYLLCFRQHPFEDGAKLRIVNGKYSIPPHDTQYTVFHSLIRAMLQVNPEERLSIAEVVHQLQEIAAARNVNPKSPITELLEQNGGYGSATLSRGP

[1] = target: T2, full length GAK protein N-terminally fused with NanoLuc luciferase (Homo sapiens, UniProt O14976); experiment: nanoBRET cellular target engagement; type: cell-based
T2 sequence (O14976 2-1311): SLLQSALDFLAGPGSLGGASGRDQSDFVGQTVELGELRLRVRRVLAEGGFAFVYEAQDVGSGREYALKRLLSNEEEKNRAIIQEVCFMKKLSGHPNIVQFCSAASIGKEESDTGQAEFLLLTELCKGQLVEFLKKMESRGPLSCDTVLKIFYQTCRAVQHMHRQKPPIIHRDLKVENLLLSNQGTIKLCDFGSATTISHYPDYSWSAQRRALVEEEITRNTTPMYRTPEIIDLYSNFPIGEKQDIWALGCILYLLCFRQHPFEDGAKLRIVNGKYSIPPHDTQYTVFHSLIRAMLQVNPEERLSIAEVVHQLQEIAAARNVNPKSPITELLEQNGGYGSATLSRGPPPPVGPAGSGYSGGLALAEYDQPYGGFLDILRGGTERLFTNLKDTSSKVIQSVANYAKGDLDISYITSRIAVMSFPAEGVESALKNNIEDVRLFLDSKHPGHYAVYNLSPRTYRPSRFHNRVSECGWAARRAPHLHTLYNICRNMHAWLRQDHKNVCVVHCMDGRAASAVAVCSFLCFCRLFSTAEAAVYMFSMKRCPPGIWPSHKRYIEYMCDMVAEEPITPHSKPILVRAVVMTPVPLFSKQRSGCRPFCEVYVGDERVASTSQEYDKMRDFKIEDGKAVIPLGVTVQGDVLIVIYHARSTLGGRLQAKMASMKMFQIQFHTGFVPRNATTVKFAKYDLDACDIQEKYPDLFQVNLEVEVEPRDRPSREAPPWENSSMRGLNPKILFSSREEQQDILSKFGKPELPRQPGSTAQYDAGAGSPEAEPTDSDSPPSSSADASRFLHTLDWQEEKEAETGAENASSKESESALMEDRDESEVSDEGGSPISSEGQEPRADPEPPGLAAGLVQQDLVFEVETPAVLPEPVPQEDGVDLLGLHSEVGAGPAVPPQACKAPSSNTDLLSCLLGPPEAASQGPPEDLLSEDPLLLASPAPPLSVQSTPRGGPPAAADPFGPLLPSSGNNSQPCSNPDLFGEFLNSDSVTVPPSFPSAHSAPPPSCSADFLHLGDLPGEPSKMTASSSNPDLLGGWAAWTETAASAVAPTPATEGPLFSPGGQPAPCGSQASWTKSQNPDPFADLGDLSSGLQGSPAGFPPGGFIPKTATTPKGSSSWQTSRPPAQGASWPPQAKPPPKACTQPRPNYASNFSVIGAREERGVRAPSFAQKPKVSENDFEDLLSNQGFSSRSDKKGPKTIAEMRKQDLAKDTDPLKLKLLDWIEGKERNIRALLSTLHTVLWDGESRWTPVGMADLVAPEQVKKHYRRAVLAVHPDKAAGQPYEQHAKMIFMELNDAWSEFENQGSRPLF

SLK [2] = target: T3, SLK (Homo sapiens, UniProt Q9H2G2); experiment: TR-FRET binding displacement assay
STK10 [3] = target: T4, STK10 (Homo sapiens, UniProt O94804); experiment: TR-FRET binding displacement assay
[4] = target: T2, full length GAK protein N-terminally fused with NanoLuc luciferase; experiment: cell-based; set-up: species or system HEK293T
STK10 [5] = target: T4, STK10; experiment: biochemical
[6] = target: T2, full length GAK protein N-terminally fused with NanoLuc luciferase; experiment: cell-based; set-up: species or system HEK293T; remark: listed apart in the source
SLK [7] = target: T3, SLK; experiment: biochemical
[8] = HEK293T cells, tracer displacement, n=[…] mean
[9] = ATP site tracer displacement, 16-point dose response

T4 sequence (O94804 36-294 limits assumed): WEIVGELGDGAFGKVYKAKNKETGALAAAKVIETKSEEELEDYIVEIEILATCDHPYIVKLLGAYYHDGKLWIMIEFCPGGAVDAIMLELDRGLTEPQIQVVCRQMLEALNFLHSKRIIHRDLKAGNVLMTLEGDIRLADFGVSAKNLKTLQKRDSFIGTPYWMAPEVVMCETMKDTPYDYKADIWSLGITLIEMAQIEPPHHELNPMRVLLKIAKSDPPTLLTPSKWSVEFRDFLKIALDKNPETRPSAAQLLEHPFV
T3 sequence (Q9H2G2 34-292): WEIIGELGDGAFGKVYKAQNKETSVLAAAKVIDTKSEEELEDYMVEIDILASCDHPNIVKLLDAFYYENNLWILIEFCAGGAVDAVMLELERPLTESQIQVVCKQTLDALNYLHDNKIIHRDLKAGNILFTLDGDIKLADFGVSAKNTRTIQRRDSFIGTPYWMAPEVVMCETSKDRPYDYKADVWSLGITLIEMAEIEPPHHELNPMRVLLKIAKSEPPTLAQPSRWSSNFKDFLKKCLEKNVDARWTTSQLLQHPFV

COc1cc2ncnc(Nc3ccc(F)c(Cl)c3)c2cc1NC(=O)/C=C/CN1CCCCC1 [Dacomitinib]
Ki (GAK): 0.007 µM
IC50 [1]: 0.049 µM
Ki (SLK [2]): 1.1 µM
Ki (STK10 [3]): 0.59 µM

COc1cc2ncnc(Nc3ccc(F)c(Cl)c3)c2cc1OCCCN1CCOCC1 [Gefitinib]
Ki (STK10 [3]): 0.34 µM

CCOc1cc2ncc(C#N)c(Nc3ccc(OCc4ccccn4)c(Cl)c3)c2cc1NC(=O)/C=C/CN(C)C [Neratinib]
Ki (GAK): 0.29 µM
IC50 [1]: 2.3 µM

CCOc1cc2ncc(C#N)c(Nc3ccc(F)c(Cl)c3)c2cc1NC(=O)/C=C/CN(C)C [Pelitinib]
IC50 [1]: 0.012 µM
Ki (SLK [2]): 0.28 µM

C#Cc1cccc(Nc2ccnc3cc(OCCOC)c(OCCOC)cc23)c1 [compound 1, erlotinib quinoline]
Ki (GAK): 0.1 µM
IC50 [1, 8]: 4.2 µM
Ki (SLK [2]): 1.2 µM
Ki (STK10 [3]): 0.72 µM

COc1cc(Nc2ccnc3ccc(Br)cc23)cc(OC)c1OC [compound 2, SGC-GAK-1]
Ki (SLK [2]): 34 µM
Ki (STK10 [3]): 4.6 µM

COc1cc2nccc(Nc3cc(OC)c(OC)c(OC)c3)c2cc1OC [compound 3, 3]
IC50 [1]: 0.026 µM
Ki (SLK [2]): 7.1 µM
Ki (STK10 [3]): 1.1 µM

COc1cc(Nc2ccnc3ccccc23)cc(OC)c1OC [compound 7, 7]
Ki (GAK; [9]): 0.04 µM
IC50 [1]: 0.73 µM
Ki (SLK [2]): > 55 µM
Ki (STK10 [3]): 27.8 µM

COc1cc(Nc2ccnc3ccc(F)cc23)cc(OC)c1OC [compound 8, 8]
Ki (SLK [2]): 5.1 µM
Ki (STK10 [3]): 45.9 µM

COc1cc(Nc2ccnc3cc(F)c(F)cc23)cc(OC)c1OC [compound 9, 6,7-difluoro-N-(3,4,5-trimethoxyphenyl)quinolin-4-amine]
Ki (GAK): 0.0069 µM
IC50 [1]: 0.14 µM
Ki (SLK [2]): 26 µM
Ki (STK10 [3]): 2.7 µM

COc1cc(Nc2ccnc3ccc(Cl)cc23)cc(OC)c1OC [compound 10, 10]
Ki (GAK): 0.00068 µM
IC50 [1]: 0.21 µM
Ki (SLK [2]): 11 µM
Ki (STK10 [3]): 1 µM

COc1cc(Nc2ccnc3ccc(I)cc23)cc(OC)c1OC [compound 11, 11]
Ki (GAK): 0.0038 µM
IC50 [1]: 0.11 µM
Ki (SLK [2]): 5.8 µM
Ki (STK10 [3]): 24.3 µM

COc1cc(Nc2ccnc3ccc(C(F)(F)F)cc23)cc(OC)c1OC [compound 12, 12]
Ki (SLK [2]): 33 µM
Ki (STK10 [3]): 4.6 µM

COc1cc(Nc2ccnc3ccc(C#N)cc23)cc(OC)c1OC [compound 13, 13]
Ki (GAK; [9]): 0.0015 µM
IC50 [1]: 0.36 µM
Ki (SLK [2]): 19 µM
Ki (STK10 [3]): 1.7 µM

COc1ccc2nccc(Nc3cc(OC)c(OC)c(OC)c3)c2c1 [compound 14, 14]
Ki (GAK; [9]): 0.013 µM
IC50 [1]: 0.36 µM
Ki (SLK [2]): > 55 µM
Ki (STK10 [3]): 12 µM

COc1cc(Nc2ccnc3ccc(S(C)(=O)=O)cc23)cc(OC)c1OC [compound 15, 15]
Ki (SLK [2]): 23 µM
Ki (STK10 [3]): 2.4 µM

COc1cc(Nc2ccnc3cc(F)ccc23)cc(OC)c1OC [compound 16, 16]
Ki (SLK [2]): 17 µM
Ki (STK10 [3]): 1.6 µM

COc1cc(Nc2ccnc3cc(Cl)ccc23)cc(OC)c1OC [compound 17, 17]
Ki (GAK): 0.0013 µM
IC50 [1]: 0.25 µM
Ki (SLK [2]): 2.1 µM
Ki (STK10 [3]): 0.21 µM

COc1cc(Nc2ccnc3cc(Br)ccc23)cc(OC)c1OC [compound 18, 18]
Ki (GAK): 0.0049 µM
IC50 [1]: 0.27 µM
Ki (SLK [2]): 2.7 µM
Ki (STK10 [3]): 0.38 µM

COc1cc(Nc2ccnc3cc(I)ccc23)cc(OC)c1OC [compound 19, 19]
Ki (GAK): 0.0044 µM
IC50 [1]: 0.074 µM
Ki (SLK [2]): 1.7 µM
Ki (STK10 [3]): 0.21 µM

COc1cc(Nc2ccnc3cc(C(F)(F)F)ccc23)cc(OC)c1OC [compound 20, 20]
Ki (GAK; [9]): 0.0062 µM
IC50 [1, 8]: 0.52 µM
Ki (SLK [2]): 3.2 µM
Ki (STK10 [3]): 0.37 µM

COc1cc(Nc2ncnc3ccccc23)cc(OC)c1OC [compound 23, 23]
IC50 [4]: 4.6 µM

COc1cc(Nc2ncnc3ccc(C)cc23)cc(OC)c1OC [compound 24, 24]
IC50 [4]: 2.1 µM

COc1cc(Nc2ncnc3ccc(F)cc23)cc(OC)c1OC [compound 25, 25]
IC50 [4]: 3.6 µM

COc1cc(Nc2ncnc3cc(F)c(F)cc23)cc(OC)c1OC [compound 26, 26]
IC50 [4]: > 5 µM

COc1cc(Nc2ncnc3ccc(Cl)cc23)cc(OC)c1OC [compound 27, 27]
IC50 [4]: 2.4 µM

COc1cc(Nc2ncnc3ccc(Br)cc23)cc(OC)c1OC [compound 28, 28]
IC50 [4]: 1.8 µM

COc1cc(Nc2ncnc3ccc(I)cc23)cc(OC)c1OC [compound 29, 29]
IC50 [4]: 0.89 µM

COc1cc(Nc2ncnc3ccc(C(F)(F)F)cc23)cc(OC)c1OC [compound 30, 30]
IC50 [4]: 4.5 µM

COc1cc(Nc2ncnc3cc(F)ccc23)cc(OC)c1OC [compound 31, 31]
IC50 [4]: > 5 µM

COc1cc(Nc2ncnc3cc(Cl)ccc23)cc(OC)c1OC [compound 32, 32]
IC50 [4]: 3.2 µM

COc1cc(Nc2ncnc3cc(Br)ccc23)cc(OC)c1OC [compound 33, 33]
IC50 [4]: 4.2 µM

COc1cc(Nc2ncnc3cc(I)ccc23)cc(OC)c1OC [compound 34, 34]
IC50 [4]: 2.4 µM

COc1cc(Nc2ncnc3cc(C(F)(F)F)ccc23)cc(OC)c1OC [compound 35, 35]
IC50 [4]: > 5 µM

COc1cc(Nc2ncnc3cc(C#N)ccc23)cc(OC)c1OC [compound 36, 4-((3,4,5-trimethoxyphenyl)amino)quinazoline-7-carbonitrile]
Ki (GAK): 0.21 µM
IC50 [4]: > 5 µM

COc1cc(Nc2ncnc3ccc(C#N)cc23)cc(OC)c1OC [compound 37, 37]
IC50 [4]: > 5 µM

COc1cc(Nc2ncnc3ccc(S(C)(=O)=O)cc23)cc(OC)c1OC [compound 38, 38]
IC50 [4]: > 5 µM

COc1ccc2ncnc(Nc3cc(OC)c(OC)c(OC)c3)c2c1 [compound 39, 39]
IC50 [4]: 3.4 µM

COc1ccc2c(Nc3cc(OC)c(OC)c(OC)c3)ncnc2c1 [compound 41, 41]
IC50 [4]: 1.6 µM

COCCOc1cc2ncnc(Nc3cc(OC)c(OC)c(OC)c3)c2cc1OCCOC [compound 42, 42]
IC50 [4]: 3 µM

C#Cc1cccc(Nc2ncnc3cc(Cl)ccc23)c1 [compound 63, 63]
Ki (STK10 [5]): 0.44 µM
IC50 [6]: > 5 µM
Ki (SLK [7]): 0.36 µM

C#Cc1cccc(Nc2ncnc3ccc(S(C)(=O)=O)cc23)c1 [compound 69, N-(3-ethynylphenyl)-6-(methylsulfonyl)quinazolin-4-amine]
Ki (GAK): 0.42 µM
Ki (STK10 [5]): 1.3 µM
IC50 [6]: > 5 µM
Ki (SLK [7]): 1.3 µM

C#Cc1cccc(Nc2ncnc3cc(OC)c(OC)cc23)c1 [compound 71, 71]
Ki (GAK): 0.001 µM
Ki (SLK [2]): 0.14 µM
Ki (STK10 [3]): 0.12 µM

C#Cc1cccc(Nc2ncnc3cc(OC)c(OC)cc23)c1 [compound 71]
IC50 [6]: 0.079 µM

C#Cc1cccc(Nc2ncnc3cc4c(cc23)OCCO4)c1 [compound 74, 74]
Ki (STK10 [5]): 1.7 µM
IC50 [6]: 3.2 µM
Ki (SLK [7]): 3.6 µM

C#Cc1cccc(Nc2c(C#N)cnc3cc(OC)c(OC)cc23)c1 [compound 82, 82]
Ki (GAK; [9]): 0.00032 µM
IC50 ([1]; HEK293T cells, tracer displacement): 0.04 µM

From paper doi:10.1101/757047v1 (biorxiv, 2019)
